Measurements published in ChEMBL document CHEMBL1828590 (J Med Chem, 2011).

Assays:
[1] = system: Liver; assay: (§1) Half life in mouse liver microsomes; type: ADME, Microsome; conditions: microsomes
[2] = target: Histone deacetylase 5 (Homo sapiens, UniProt Q9UQL6)
Description: Competitive inhibition of HDAC5 using KI-104 as substrate by fluorescence assay

[3] = target: T1, Histone deacetylase 1 (Homo sapiens, UniProt Q13547)
Description: Inhibition of full length recombinant HDAC1 using Fluor de Lys as substrate by fluorescence assay

[4] = Half life in human liver microsomes; type: ADME, Microsome
[5] = system: COLO 205; assay: Antiproliferative activity against human COLO205 cells after 96 hrs by celltiter 96 assay; type: functional, cell-based; conditions: COLO 205, 96 h
[6] = target: T1, Histone deacetylase 1; remark: listed apart in the source
Description: Competitive inhibition of HDAC1 using KI-104 as substrate by fluorescence assay

[7] = target: T2, Protein deacetylase HDAC6 (Homo sapiens, UniProt Q9UBN7)
T2 sequence (Q9UBN7 whole entry): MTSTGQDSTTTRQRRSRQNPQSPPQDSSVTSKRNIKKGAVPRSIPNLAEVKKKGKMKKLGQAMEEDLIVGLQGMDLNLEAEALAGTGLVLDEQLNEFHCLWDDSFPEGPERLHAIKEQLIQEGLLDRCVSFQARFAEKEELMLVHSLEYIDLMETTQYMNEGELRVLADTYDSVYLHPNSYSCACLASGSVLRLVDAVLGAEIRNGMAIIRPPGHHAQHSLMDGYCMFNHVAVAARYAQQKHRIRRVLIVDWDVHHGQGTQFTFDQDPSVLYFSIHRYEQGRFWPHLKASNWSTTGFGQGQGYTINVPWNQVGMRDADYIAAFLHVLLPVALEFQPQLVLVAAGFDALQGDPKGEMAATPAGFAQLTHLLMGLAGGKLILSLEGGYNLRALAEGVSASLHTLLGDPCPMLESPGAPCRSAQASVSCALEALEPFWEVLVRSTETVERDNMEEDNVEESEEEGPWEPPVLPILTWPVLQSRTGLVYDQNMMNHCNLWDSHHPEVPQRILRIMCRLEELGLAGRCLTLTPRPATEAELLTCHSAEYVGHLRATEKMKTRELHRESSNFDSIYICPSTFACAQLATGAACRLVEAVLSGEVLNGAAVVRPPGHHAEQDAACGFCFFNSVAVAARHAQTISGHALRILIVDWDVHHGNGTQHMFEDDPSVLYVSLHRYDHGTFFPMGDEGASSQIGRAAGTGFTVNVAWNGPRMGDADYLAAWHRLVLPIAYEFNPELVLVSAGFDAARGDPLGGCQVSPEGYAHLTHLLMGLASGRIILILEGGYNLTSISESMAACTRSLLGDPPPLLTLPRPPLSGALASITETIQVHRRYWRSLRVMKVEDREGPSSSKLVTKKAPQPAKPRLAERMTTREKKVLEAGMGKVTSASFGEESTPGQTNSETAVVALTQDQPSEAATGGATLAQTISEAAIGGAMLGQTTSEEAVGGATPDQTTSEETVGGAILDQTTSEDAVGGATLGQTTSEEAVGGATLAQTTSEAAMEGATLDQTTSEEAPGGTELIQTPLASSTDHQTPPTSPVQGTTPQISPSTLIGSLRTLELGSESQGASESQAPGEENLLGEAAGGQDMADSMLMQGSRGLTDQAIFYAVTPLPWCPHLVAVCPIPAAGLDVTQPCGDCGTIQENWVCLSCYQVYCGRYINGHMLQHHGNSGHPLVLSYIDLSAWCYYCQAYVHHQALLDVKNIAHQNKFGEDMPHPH
Description: Competitive inhibition of HDAC6 using KI-104 as substrate by fluorescence assay

[8] = target: T3, Polyamine deacetylase HDAC10 (Homo sapiens, UniProt Q969S8)
T3 sequence (Q969S8 whole entry): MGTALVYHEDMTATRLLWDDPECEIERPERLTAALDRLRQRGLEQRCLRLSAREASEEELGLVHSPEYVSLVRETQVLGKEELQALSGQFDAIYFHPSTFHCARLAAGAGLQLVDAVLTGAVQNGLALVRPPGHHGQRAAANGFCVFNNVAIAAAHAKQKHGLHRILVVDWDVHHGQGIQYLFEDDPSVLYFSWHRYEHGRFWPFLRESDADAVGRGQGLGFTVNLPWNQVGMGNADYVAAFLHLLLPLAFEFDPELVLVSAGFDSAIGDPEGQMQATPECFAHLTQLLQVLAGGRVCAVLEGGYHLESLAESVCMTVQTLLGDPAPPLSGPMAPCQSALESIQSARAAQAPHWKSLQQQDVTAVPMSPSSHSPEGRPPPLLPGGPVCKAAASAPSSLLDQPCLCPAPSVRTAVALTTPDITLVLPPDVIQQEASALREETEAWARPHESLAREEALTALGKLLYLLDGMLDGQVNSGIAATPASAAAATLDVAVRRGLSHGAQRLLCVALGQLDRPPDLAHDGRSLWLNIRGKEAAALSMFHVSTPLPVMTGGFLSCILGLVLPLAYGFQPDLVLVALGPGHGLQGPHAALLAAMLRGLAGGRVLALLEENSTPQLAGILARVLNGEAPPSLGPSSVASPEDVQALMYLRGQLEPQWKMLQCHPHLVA
Description: Competitive inhibition of HDAC10 using KI-104 as substrate by fluorescence assay

[9] = target: Histone deacetylase 2 (Homo sapiens, UniProt Q92769)
Chain of Histone deacetylase 2 (Q92769 whole entry): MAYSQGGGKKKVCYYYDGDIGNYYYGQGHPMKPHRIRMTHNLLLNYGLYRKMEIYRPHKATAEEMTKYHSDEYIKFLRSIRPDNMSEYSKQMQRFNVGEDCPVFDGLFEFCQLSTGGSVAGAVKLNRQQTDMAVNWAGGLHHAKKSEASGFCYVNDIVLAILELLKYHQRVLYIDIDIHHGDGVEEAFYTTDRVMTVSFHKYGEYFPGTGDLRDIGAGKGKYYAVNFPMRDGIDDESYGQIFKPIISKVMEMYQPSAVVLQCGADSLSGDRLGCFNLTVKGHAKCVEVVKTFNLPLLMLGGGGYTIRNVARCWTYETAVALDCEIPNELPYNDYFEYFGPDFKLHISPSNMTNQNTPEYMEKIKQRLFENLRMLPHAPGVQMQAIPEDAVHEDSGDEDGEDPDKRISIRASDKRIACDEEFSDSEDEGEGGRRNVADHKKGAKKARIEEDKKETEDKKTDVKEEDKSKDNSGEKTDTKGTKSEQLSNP
Description: Competitive inhibition of HDAC2 using KI-104 as substrate by fluorescence assay

[10] = target: Histone deacetylase 3 (Homo sapiens, UniProt O15379)
Chain of Histone deacetylase 3 (O15379 whole entry): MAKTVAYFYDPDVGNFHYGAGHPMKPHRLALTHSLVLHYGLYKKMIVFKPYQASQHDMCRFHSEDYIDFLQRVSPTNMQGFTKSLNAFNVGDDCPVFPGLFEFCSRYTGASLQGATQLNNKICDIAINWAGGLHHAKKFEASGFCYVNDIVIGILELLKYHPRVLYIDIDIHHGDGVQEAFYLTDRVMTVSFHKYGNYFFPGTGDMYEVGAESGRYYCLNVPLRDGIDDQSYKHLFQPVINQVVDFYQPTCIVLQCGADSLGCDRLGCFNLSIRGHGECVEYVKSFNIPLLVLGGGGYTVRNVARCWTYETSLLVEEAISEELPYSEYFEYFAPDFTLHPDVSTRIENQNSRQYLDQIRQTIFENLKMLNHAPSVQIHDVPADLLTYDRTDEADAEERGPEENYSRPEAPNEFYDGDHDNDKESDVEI
Description: Competitive inhibition of HDAC3 using KI-104 as substrate by fluorescence assay

[11] = target: T4, Histone deacetylase 11 (Homo sapiens, UniProt Q96DB2)
T4 sequence (Q96DB2 whole entry): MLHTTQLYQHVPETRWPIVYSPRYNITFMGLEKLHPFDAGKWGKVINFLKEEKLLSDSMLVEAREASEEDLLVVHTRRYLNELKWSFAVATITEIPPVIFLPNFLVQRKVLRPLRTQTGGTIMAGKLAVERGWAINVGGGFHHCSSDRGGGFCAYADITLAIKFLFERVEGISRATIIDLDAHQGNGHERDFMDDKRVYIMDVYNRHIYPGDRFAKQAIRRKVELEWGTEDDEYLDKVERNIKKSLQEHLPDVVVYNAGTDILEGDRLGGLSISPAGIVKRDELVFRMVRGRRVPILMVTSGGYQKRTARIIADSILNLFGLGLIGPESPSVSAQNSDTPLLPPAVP
Description: Competitive inhibition of HDAC11 using KI-104 as substrate by fluorescence assay

[12] = target: Histone deacetylase 9 (Homo sapiens, UniProt Q9UKV0)
Chain of Histone deacetylase 9 (Q9UKV0 whole entry): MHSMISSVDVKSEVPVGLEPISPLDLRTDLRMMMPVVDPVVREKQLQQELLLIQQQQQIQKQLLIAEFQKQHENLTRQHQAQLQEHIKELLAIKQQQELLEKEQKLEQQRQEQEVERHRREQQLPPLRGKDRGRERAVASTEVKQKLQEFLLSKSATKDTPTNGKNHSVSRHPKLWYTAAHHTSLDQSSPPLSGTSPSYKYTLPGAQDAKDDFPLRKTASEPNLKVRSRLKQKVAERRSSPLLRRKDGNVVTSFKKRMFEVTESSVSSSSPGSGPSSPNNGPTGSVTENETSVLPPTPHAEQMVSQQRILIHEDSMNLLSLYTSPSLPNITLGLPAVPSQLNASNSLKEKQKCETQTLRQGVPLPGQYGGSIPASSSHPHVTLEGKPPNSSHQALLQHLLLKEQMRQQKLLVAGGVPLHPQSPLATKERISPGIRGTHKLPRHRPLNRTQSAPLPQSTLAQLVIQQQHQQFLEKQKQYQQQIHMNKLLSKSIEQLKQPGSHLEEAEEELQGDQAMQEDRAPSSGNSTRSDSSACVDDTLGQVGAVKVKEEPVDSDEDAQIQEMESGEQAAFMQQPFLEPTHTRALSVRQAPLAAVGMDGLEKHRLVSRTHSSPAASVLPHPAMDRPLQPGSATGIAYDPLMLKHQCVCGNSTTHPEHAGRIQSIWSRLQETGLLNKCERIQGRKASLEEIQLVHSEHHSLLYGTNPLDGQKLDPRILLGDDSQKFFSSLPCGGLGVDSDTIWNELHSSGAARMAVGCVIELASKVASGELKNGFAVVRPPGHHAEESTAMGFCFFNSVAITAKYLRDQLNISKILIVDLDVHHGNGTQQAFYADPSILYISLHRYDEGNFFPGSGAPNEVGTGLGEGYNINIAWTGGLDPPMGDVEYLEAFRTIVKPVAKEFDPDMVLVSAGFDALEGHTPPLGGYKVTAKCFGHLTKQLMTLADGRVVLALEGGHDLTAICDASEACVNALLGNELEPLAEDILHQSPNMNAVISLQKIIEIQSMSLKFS
Description: Competitive inhibition of HDAC9 using KI-104 as substrate by fluorescence assay

[13] = target: Histone deacetylase 4 (Homo sapiens, UniProt P56524)
Chain of Histone deacetylase 4 (P56524 whole entry): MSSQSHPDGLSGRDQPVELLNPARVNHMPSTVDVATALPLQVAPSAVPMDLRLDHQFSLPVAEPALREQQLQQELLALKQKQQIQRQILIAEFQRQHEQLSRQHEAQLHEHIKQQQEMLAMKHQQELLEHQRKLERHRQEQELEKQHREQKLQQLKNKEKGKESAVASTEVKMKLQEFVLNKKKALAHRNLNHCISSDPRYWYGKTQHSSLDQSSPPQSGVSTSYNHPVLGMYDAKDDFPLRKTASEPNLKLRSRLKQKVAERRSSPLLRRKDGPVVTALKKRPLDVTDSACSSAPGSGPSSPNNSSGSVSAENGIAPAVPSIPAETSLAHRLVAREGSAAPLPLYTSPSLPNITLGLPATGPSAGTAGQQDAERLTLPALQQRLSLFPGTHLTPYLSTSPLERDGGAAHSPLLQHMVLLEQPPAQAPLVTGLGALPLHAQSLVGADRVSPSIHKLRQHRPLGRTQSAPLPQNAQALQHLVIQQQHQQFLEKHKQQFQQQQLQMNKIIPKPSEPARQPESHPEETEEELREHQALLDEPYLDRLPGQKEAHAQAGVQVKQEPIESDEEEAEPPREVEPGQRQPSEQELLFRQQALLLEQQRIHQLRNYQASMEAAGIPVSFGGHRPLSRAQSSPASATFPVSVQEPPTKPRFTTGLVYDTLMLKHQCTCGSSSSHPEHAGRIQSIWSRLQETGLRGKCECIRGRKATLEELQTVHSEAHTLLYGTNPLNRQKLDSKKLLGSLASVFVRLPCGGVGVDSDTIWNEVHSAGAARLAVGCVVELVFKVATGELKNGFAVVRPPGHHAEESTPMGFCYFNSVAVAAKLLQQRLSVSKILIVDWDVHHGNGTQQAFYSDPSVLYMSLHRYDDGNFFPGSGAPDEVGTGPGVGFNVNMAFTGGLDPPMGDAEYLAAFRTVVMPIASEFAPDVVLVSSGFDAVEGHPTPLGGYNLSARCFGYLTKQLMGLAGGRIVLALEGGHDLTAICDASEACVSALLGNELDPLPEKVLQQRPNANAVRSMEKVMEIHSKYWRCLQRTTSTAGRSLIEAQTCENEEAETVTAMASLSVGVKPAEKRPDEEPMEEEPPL
Description: Competitive inhibition of HDAC4 using KI-104 as substrate by fluorescence assay

[14] = as §1; type: ADME, Microsome; conditions: liver microsomes
[15] = Kinetic solubility of the compound at pH 7 with […] DMSO; type: physicochemical; conditions: buffer, read-out: Kinetic_solubility
[16] = Apparent permeability from basolateral to apical side of human Caco2 cells; type: ADME, cell-based; conditions: Caco-2
[17] = Apparent permeability from apical to basolateral side of human Caco2 cells; type: ADME, cell-based; conditions: Caco-2
[18] = Half life in dog liver microsomes; type: ADME, Canis lupus familiaris, Microsome
[19] = system: Mus musculus; assay: Toxicity in athymic nu/nu Harlan mouse xenografted with human HCT116 cells assessed as mouse survival at 50 mg/kg, po QD for 21 days measured on day 22; type: organism-based, HCT-116; set-up: dose 50 mg/kg, route oral; conditions: in vivo, 504 h
[20] = system: HCT-116; assay: Antitumor activity against human HCT116 cells xenografted in athymic nu/nu Harlan mouse assessed as tumor growth inhibition at 100 mg/kg, po qd for 21 days measured on day 22; type: functional; conditions: read-out: TGI
[21] = system: Mus musculus; assay: Toxicity in athymic nu/nu Harlan mouse xenografted with human HCT116 cells assessed as mouse survival at 100 mg/kg, po QD for 21 days measured on day 22; type: organism-based, HCT-116; set-up: dose 100 mg/kg, route oral; conditions: in vivo, 504 h
[22] = system: HCT-116; assay: Antitumor activity against human HCT116 cells xenografted in athymic nu/nu Harlan mouse assessed as tumor growth inhibition at 200 mg/kg, po qd for 21 days measured on day 22; type: functional; conditions: read-out: TGI
[23] = system: Mus musculus; assay: Toxicity in athymic nu/nu Harlan mouse xenografted with human HCT116 cells assessed as mouse survival at 200 mg/kg, po QD for 21 days measured on day 22; type: organism-based, HCT-116; set-up: dose 200 mg/kg, route oral; conditions: in vivo, 504 h
[24] = Half life in rat liver microsomes; type: ADME, Microsome
[25] = system: HCT-116; assay: Antitumor activity against human HCT116 cells xenografted in athymic nu/nu Harlan mouse assessed as tumor growth inhibition at 50 mg/kg, po qd for 21 days measured on day 22; type: functional; conditions: read-out: TGI
[26] = target: T5, Histone deacetylase 8 (Homo sapiens, UniProt Q9BY41)
T5 sequence (Q9BY41 whole entry): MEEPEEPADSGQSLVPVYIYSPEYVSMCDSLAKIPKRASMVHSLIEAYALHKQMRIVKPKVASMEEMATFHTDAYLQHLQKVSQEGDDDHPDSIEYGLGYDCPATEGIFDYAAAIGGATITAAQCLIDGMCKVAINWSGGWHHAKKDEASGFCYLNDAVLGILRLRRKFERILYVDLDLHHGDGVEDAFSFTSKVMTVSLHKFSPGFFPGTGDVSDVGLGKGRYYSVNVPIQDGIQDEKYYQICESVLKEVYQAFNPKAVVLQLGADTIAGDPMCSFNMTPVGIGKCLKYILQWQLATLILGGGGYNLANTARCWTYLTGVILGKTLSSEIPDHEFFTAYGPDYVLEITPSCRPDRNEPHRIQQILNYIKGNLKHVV
Description: Competitive inhibition of HDAC8 using KI-104 as substrate by fluorescence assay

[27] = system: HCT-116; assay: Antiproliferative activity against human HCT116 cells after 96 hrs by celltiter 96 assay; type: functional, cell-based; conditions: HCT-116, 96 h
[28] = system: PC-3; assay: Antiproliferative activity against human PC3 cells after 96 hrs by celltiter 96 assay; type: functional, cell-based; conditions: PC-3, 96 h
[29] = system: A2780; assay: Antiproliferative activity against human A2780 cells after 96 hrs by celltiter 96 assay; type: functional, cell-based; conditions: A2780, 96 h
[30] = target: Histone deacetylase 7 (Homo sapiens, UniProt Q8WUI4)
Description: Competitive inhibition of HDAC7 using KI-104 as substrate by fluorescence assay

[31] = system: Mus musculus; assay: Toxicity in athymic nu/nu Harlan mouse xenografted with human HCT116 cells assessed as body weight loss at 200 mg/kg, po QD for 21 days measured on day 19; type: organism-based, HCT-116; set-up: dose 200 mg/kg, route oral; conditions: in vivo, 504 h
[32] = system: Mus musculus; assay: Toxicity in athymic nu/nu Harlan mouse xenografted with human HCT116 cells assessed as body weight loss at 100 mg/kg, po QD for 21 days measured on day 8; type: organism-based, HCT-116; set-up: dose 100 mg/kg, route oral; conditions: in vivo, 504 h

T1 sequence (Q13547 whole entry): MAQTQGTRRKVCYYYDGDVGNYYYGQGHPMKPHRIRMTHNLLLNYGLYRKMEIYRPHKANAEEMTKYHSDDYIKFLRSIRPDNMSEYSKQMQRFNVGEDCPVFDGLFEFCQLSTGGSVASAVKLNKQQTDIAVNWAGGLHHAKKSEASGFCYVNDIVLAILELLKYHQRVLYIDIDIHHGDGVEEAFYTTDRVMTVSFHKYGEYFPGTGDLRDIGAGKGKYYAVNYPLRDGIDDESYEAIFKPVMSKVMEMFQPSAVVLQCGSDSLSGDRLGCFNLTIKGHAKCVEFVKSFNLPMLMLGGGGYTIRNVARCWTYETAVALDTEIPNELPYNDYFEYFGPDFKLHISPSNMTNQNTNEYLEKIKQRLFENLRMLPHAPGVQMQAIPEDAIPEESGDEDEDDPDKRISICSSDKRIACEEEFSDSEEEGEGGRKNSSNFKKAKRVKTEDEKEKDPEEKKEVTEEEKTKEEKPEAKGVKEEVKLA
Chain of Histone deacetylase 5 (Q9UQL6 whole entry): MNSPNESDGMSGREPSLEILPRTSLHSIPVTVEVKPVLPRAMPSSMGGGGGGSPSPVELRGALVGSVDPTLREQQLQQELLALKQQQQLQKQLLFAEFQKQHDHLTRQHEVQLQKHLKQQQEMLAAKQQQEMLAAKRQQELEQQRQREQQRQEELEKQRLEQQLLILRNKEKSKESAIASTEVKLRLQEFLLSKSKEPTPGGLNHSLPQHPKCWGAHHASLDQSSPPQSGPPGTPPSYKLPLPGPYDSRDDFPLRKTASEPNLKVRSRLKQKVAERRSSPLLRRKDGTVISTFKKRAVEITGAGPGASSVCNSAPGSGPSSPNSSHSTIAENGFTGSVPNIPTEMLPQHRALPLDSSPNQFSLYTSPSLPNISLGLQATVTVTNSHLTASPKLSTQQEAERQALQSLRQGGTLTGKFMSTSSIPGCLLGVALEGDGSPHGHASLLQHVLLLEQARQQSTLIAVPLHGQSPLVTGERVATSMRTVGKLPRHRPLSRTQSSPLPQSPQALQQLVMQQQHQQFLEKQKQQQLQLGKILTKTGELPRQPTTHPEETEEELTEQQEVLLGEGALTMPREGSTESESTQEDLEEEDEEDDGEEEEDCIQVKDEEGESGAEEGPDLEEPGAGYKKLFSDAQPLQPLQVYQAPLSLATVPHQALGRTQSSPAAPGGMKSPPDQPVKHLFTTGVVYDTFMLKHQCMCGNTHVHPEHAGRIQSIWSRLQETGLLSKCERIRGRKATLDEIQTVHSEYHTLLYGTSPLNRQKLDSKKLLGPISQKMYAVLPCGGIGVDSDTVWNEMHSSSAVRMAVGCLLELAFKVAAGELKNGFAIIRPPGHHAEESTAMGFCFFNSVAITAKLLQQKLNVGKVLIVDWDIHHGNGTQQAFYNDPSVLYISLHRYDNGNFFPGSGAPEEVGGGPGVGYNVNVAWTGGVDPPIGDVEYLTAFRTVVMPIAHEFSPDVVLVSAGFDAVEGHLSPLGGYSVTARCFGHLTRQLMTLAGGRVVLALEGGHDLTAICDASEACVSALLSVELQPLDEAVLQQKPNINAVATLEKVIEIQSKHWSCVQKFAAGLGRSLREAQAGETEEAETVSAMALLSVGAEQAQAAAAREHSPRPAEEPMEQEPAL

O=C(/C=C/c1ccc2c(c1)nc(CCc1ccccc1)n2CCN1CCCCC1)NO
t1/2 [1]: 35 min | Ki [2]: 18 nM | IC50 [3]: 23 nM | half-life [4]: 90 min | IC50 [5]: 87 nM | Ki [6]: 12 nM | Ki [7]: 27 nM | Ki [8]: 23 nM | Ki [9]: 39 nM | Ki [10]: 11 nM | Ki [11]: 14 nM | Ki [12]: 24 nM | Ki [13]: 8.7 nM

CCCCCCc1nc2cc(/C=C/C(=O)NO)ccc2n1CCNCC.Cl.Cl
half-life [14]: 1.6 min | solubility kinetic [15]: > 200 µM | Papp B→A [16]: 10.5 ×10⁻⁶ cm/s | Papp A→B [17]: 0.97 ×10⁻⁶ cm/s | half-life [18]: 48 min | Activity [19]: Non-toxic | half-life [4]: 51 min | inhibition in vivo at 100 mg/kg [20]: -7% | Activity [21]: Non-toxic | inhibition in vivo at 200 mg/kg [22]: 41% | Activity [23]: Non-toxic | half-life [24]: 1.1 min | inhibition in vivo at 50 mg/kg [25]: -9%

CCCCCCc1nc2cc(/C=C/C(=O)NO)ccc2n1CCNC(C)C
Ki [2]: 6.6 nM | Ki [26]: 57 nM | IC50 [3]: 36 nM | IC50 [5]: 170 nM | Ki [6]: 20 nM | IC50 [27]: 210 nM | Ki [7]: 348 nM | Ki [8]: 29 nM | Ki [9]: 18 nM | Ki [10]: 15 nM | Ki [11]: 14 nM | IC50 [28]: 170 nM | Ki [12]: 16 nM | IC50 [29]: 200 nM | Ki [13]: 6.6 nM | Ki [30]: 41 nM

CCCCc1nc2cc(/C=C/C(=O)NO)ccc2n1CCNC(C)C.Cl.Cl
half-life [14]: 36 min | solubility kinetic [15]: > 200 µM | Activity [31]: 7.9% | half-life [18]: > 60 min | Activity [19]: Non-toxic | half-life [4]: > 60 min | inhibition in vivo at 100 mg/kg [20]: 60% | Activity [21]: Non-toxic | inhibition in vivo at 200 mg/kg [22]: 90% | Activity [32]: 5% | half-life [24]: 3.3 min | inhibition in vivo at 50 mg/kg [25]: 19%

CN(C)CC(C)(C)Cn1c(CCc2ccccc2)nc2cc(/C=C/C(=O)NO)ccc21
t1/2 [1]: 17 min | Ki [2]: 16 nM | IC50 [3]: 42 nM | half-life [4]: 60 min | IC50 [5]: 110 nM | Ki [6]: 15 nM | Ki [7]: 23 nM | Ki [8]: 23 nM | Ki [9]: 39 nM | Ki [10]: 11 nM | Ki [11]: 16 nM | Ki [12]: 21 nM | Ki [13]: 10 nM
